Read-outs that look alike come from different tables or passages of the source. Square brackets hold non-standard residues; d marks the D form. Peptide text beside a SMILES is read from it. * marks the point of attachment. aIle = CC[C@@H](C)[C@H](N)C(=O)O; Tic = O=C(O)[C@@H]1Cc2ccccc2CN1; Aoc(2) = CCCCCC[C@H](N)C(=O)O; Phg = N[C@H](C(=O)O)c1ccccc1; Tle = CC(C)(C)[C@H](N)C(=O)O; Pip = O=C(O)[C@@H]1CCCCN1; Nle = CCCC[C@H](N)C(=O)O; Orn = NCCC[C@H](N)C(=O)O; Aze = O=C(O)[C@@H]1CCN1; Nva = CCC[C@H](N)C(=O)O; Abu = CC[C@H](N)C(=O)O; Bn = c1ccc(C*)cc1
How the values were obtained:
purified porcine DP IV [1] = molecular target: T1, purified porcine DP IV (Sus scrofa, UniProt P22411); experiment: Determination of Ki-values, Gly-Pro-pNA cleavage by DP IV; type: biochemical; details: Gly-Pro-pNA 0.05-0.4 mM
Protocol: (§1) 100 μl inhibitor stock solution were mixed with 100 μl buffer (HEPES pH 7.6) and 50 μl substrate (Gly-Pro-pNA, final concentration 0.4 mM) and preincubated at 30° C. Reaction was started by addition of 20 μl purified porcine DP IV. Formation of the product pNA was measured at 405 nm over 10 min using the HTS 7000 Plus plate reader (Perkin Elmer) and slopes were calculated. The final inhibitor concentrations ranged between 1 mM and 30 nM.
Calculations were performed using the GraFit Software.

purified porcine DP IV [2] = molecular target: T1, purified porcine DP IV; experiment: Determination of IC50-values, Gly-Pro-pNA cleavage by DP IV; type: biochemical; details: Gly-Pro-pNA 0.4 mM, HEPES pH 7.6, 30° C.; read-out: IC50
Protocol: as §1
For calculation of IC50-values GraFit 4.0.13 (Erithacus Software) was used.

[3] = tested on: diabetic Zucker rats (fa/fa); experiment: Oral glucose tolerance test (OGTT) in diabetic Zucker rats; type: in vivo; details: 100 mg/kg b.w. p.o.; for Improvement of glucose tolerance: AUC test compound vs AUC Control; for AUC test compound (glucose, OGTT): OGTT 2 g/kg glucose
Protocol: N=30 male Zucker rats (fa/fa), mean age 11 weeks (5-12 weeks), mean body weight 350 g (150-400 g), were purchased from Charles River (Sulzfeld, Germany). They were kept for >12 weeks until all the fatty Zucker rats had the characteristics of manifest Diabetes mellitus.
After overnight fasting, the fatty Zucker rats were given placebo, positive control and test substance, respectively, via feeding tube orally (15 G, 75 mm; Fine Science Tools, Heidelberg, Germany) at −10 min. An oral glucose tolerance test (OGTT) with 2 g/kg b.w. glucose as a 40% solution (B. Braun Melsungen, Melsungen, Germany) was implemented at ±0 min. The glucose was administered via a second feeding tube. Arterial blood samples from the carotid catheter were collected at −30 min, −15 min, ±0 min and at 5, 10, 15, 20, 30, 40, 60, 90 and 120 min into 20 μl glass capillaries, which were placed in standard tubes filled with 1 ml solution for hemolysis (blood glucose measurement).
Blood glucose: Glucose levels were measured using the glucose oxidase procedure (Super G Glukosemeβgerät; Dr. Müller Gerätebau, Freital, Germany).

plasma DP IV = molecular target: T2, plasma DP IV (Rattus norvegicus, UniProt P14740); experiment: Plasma DP IV activity after intravasal and oral administration in Wistar rats; type: in vivo; details: rat, Wistar rats, 100 mg/kg
T2 construct: The assay mixture consisted of 80 μl reagent and 20 μl plasma; from tissue; host or cells: plasma of Wistar rats
Protocol: Rats with intact catheter function were given the test substances intravasal (intraarterial) or oral, respectively, in random order (N=3 Wistar rats in each group). As positive control, […]. isoleucine thiazolidine*fumarate were administered intravasal.
After overnight fasting, 100 μl samples of heparinized arterial blood were collected at −30, −5, and 0 min into ice-cooled Eppendorf tubes (see below). The test substances were dissolved freshly in 1.0 ml saline (0.154 mol/l) and were given at 0 min either oral via a feeding tube ([…], 75 mm; Fine Science Tools, Heidelberg, Germany) or intravasal. For the intravasal route, the catheter was immediately flushed with 30 μl saline and an additional 1 ml of saline was given orally via the feeding tube.
Arterial blood samples were taken thereafter at 5, 10 (only in a limited number of experiments), 20, 40, 60 and 120 min from the carotid catheter of the conscious unrestrained rats and were always given into ice cooled Eppendorf tubes (Eppendorf-Netheler-Hinz, Hamburg, Germany) filled with 10 μl 1 M citrate buffer pH 3.0 for prevention of further hydrolysis of tripeptides by plasma DP IV activity. Eppendorf tubes were centrifuged immediately (12000 rpm for 2 min, Hettich Zentrifuge EBA 12, Tuttlingen; Germany): The plasma fractions were store on ice until analysis or were deeply frozen at −20 ° C. until analysis.
Plasma DP IV activity: The assay mixture consisted of 80 μl reagent and 20 μl plasma. Kinetic measurements of the formation of the yellow product 4-nitroaniline were performed at 390 nm for 1 min at 30° C. after 2 min pre-incubation at the same temperature. The activity was expressed as arbitrary units [AU] and DP IV activity [mU/ml].
The absolute values of plasma DP IV activity, the relative change of plasma DP IV activity and the time and extent of maximal inhibition were calculated. Data presentation included the presentation of area under the curve (AUC), which was used for evaluation of extent of inhibition of plasma DP IV activity during the two hours of observation. AUC was calculated using the trapezoidal rule.
To compare relative changes of parameters under the conditions of different initial values of DP IV activity an uniform standardised mean (values) was set up at the beginning of the test (see Figures and Tables).
Statistical evaluations were performed with Microsoft Excel® 97. All variables are presented as mean and standard deviation (SD). Treatment groups were compared by Student's t-test, within-group changes by paired t-test. Two-tailed values of p<0.05 were considered significant.

T1 sequence (P22411 whole entry): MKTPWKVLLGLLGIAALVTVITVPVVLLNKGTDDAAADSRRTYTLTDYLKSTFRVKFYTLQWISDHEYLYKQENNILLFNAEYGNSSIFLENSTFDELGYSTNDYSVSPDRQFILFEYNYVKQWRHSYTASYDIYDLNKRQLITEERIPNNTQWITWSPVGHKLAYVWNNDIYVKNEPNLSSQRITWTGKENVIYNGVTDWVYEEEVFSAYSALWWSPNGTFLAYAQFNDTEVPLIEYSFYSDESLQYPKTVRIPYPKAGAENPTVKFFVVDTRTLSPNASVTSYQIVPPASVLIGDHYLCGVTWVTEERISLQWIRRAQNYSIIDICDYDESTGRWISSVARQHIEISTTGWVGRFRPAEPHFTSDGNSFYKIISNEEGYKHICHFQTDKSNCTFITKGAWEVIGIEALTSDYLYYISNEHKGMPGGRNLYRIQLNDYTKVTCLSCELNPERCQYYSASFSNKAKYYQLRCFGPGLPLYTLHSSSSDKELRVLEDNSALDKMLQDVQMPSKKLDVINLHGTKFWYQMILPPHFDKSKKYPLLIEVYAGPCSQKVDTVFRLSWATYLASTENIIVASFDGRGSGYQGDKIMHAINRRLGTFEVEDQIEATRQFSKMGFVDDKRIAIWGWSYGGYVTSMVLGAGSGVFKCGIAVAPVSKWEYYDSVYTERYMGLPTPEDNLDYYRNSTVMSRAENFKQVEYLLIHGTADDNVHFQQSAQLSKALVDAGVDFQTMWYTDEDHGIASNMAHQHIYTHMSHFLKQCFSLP
T2 sequence (P14740 37-767 limits assumed): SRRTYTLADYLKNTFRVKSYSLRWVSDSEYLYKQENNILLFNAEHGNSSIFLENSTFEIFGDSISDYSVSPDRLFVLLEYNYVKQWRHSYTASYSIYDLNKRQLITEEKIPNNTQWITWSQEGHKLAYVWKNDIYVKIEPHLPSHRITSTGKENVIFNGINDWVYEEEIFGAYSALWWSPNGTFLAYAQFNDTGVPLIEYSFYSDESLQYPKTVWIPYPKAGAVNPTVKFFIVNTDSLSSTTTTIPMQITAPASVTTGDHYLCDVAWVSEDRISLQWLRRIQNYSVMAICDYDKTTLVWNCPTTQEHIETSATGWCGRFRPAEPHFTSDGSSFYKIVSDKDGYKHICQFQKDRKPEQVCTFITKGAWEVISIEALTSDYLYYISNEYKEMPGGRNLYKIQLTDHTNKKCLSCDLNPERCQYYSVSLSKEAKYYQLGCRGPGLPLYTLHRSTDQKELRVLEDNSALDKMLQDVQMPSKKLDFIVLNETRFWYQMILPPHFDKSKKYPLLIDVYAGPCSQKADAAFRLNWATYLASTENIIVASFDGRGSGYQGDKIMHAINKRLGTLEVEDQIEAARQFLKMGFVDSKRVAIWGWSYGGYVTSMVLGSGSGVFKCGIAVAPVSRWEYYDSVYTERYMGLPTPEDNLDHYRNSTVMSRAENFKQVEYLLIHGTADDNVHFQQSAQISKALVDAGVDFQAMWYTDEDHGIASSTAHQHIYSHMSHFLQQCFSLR

Row | SMILES | Ki (purified porcine DP IV [1]) [µM] | IC50 (purified porcine DP IV [2]) [µM] | further results
1 | CCCCCC[C@H](N)C(=O)N1CCC[C@H]1C(=O)N[C@H](C(=O)O)[C@@H](C)CC [AOA-Pro-Ile, 2-Amino octanoic acid-Pro-Ile] (H-[Aoc(2)]-Pro-Ile-OH) | 12.6 | 42.1 | –
2 | CC[C@H](N)C(=O)N1CCC[C@H]1C(=O)N[C@H](C(=O)O)[C@@H](C)CC [Abu-Pro-Ile] (H-[Abu]-Pro-Ile-OH; N-terminus and C-terminus assumed) | 8.75 | 34.3 | –
3 | CC[C@H](C)[C@H](NC(=O)[C@@H]1CCCN1C(=O)[C@@H]1CCN1)C(=O)O [Aze−Pro-Ile, Aze-Pro-Ile] (H-[Aze]-Pro-Ile-OH; N-terminus and C-terminus assumed) | 20.5 | 72.8 | –
4 | CC[C@H](C)[C@H](N)C(=O)N1CCC[C@H]1C(=O)N[C@H](C(=O)O)C(C)(C)C [Ile-Pro-t-butyl-Gly] (H-Ile-Pro-[Tle]-OH; N-terminus and C-terminus assumed) | 18.9 | 82.3 | Improvement of glucose tolerance [3]: 5.3%; AUC test compound (glucose, OGTT) [3]: 819.5 mmol·min/L
5 | CC[C@@H](C)[C@H](NC(=O)[C@@H]1CCCN1C(=O)[C@@H](N)[C@@H](C)CC)C(=O)O [Ile−Pro-(allo)Ile, Ile-Pro-allo-Ile] | 5.22 | 15.4 | –
6 | CCCC[C@H](N)C(=O)N1CCC[C@H]1C(=O)N[C@H](C(=O)O)[C@@H](C)CC [Nle−Pro-Ile, Nle-Pro-Ile] (H-[Nle]-Pro-Ile-OH; N-terminus and C-terminus assumed) | 9.6 | 21.9 | –
7 | CCC[C@H](N)C(=O)N1CCC[C@H]1C(=O)N[C@H](C(=O)O)[C@@H](C)CC [Nva-Pro-Ile] (H-[Nva]-Pro-Ile-OH; N-terminus and C-terminus assumed) | 6.17 | 24.9 | –
8 | CC[C@@H](C)[C@H](NC(=O)[C@@H]1CCCN1C(=O)[C@@H](N)Cc1ccc(O)cc1)C(=O)O [Tyr-Pro-(allo)Ile, Tyr-Pro-allo-Ile] (H-Tyr-Pro-[aIle]-OH; N-terminus and C-terminus assumed) | 18.2 | 64.1 | –

Now from value to molecule, other results behind:

Row | Ki (purified porcine DP IV [1]) [µM] | IC50 (purified porcine DP IV [2]) [µM] | SMILES | further results
9 | – | 216 | CC[C@H](C)[C@H](NC(=O)[C@@H]1CCCN1C(=O)[C@@H](N)CCCN)C(=O)O [Orn-Pro-Ile] (H-[Orn]-Pro-Ile-OH; N-terminus and C-terminus assumed) | –
10 | – | 154 | CC[C@H](C)[C@H](NC(=O)[C@@H]1CCCN1C(=O)[C@@H](N)c1ccccc1)C(=O)O [Phg-Pro-Ile] (H-[Phg]-Pro-Ile-OH; N-terminus and C-terminus assumed) | –
11 | – | > 100000 | CC[C@H](C)[C@H](NC(=O)[C@@H]1CCCN1C(=O)[C@@H]1CCCCN1)C(=O)O [Pip-Pro-Ile] (H-[Pip]-Pro-Ile-OH; N-terminus and C-terminus assumed) | –
12 | 21.6 | 67.8 | CC[C@H](C)[C@H](NC(=O)[C@@H]1CCCN1C(=O)[C@@H](N)COCc1ccccc1)C(=O)O [Ser(Bzl)-Pro-Ile] (H-Ser(Bn)-Pro-Ile-OH; N-terminus and C-terminus assumed) | –
13 | – | 800 | CC[C@H](C)[C@H](NC(=O)[C@@H]1CCCN1C(=O)[C@@H]1Cc2ccccc2CN1)C(=O)O [Tic-Pro-Ile] (H-[Tic]-Pro-Ile-OH; N-terminus and C-terminus assumed) | –
14 | 9.54 | 18 | CC[C@@H](C)[C@H](NC(=O)[C@@H]1CCCN1C(=O)[C@@H](N)C(C)C)C(=O)O [Val-Pro-(allo)Ile, Val-Pro-allo-Ile] | –
15 | 19.6 | – | CC(C)[C@H](N)C(=O)N1CCC[C@H]1C(=O)N[C@H](C(=O)O)C(C)(C)C [Val-Pro-t-butyl-Gly] (H-Val-Pro-[Tle]-OH; N-terminus and C-terminus assumed) | Improvement of glucose tolerance [3]: 16.5%; AUC test compound (glucose, OGTT) [3]: 722.4 mmol·min/L
16 | 15.1 | 56.3 | CC(C)(C)[C@H](N)C(=O)N1CCC[C@H]1C(=O)NCC(=O)O [t-butyl-Gly-Pro-Gly] (H-[Tle]-Pro-Gly-OH; N-terminus and C-terminus assumed) | –
17 | 5.6 | 22.9 | CC[C@H](C)[C@H](NC(=O)[C@@H]1CCCN1C(=O)[C@@H](N)C(C)(C)C)C(N)=O [t-butyl-Gly-Pro-Ile-NH2, t-butyl-Gly-Pro-Ile-amide] (H-[Tle]-Pro-Ile-NH2; N-terminus assumed) | –
18 | 3.1 | 13.8 | CC(C)[C@H](NC(=O)[C@@H]1CCCN1C(=O)[C@@H](N)C(C)(C)C)C(=O)O [t-butyl-Gly-Pro-Val] (H-[Tle]-Pro-Val-OH; N-terminus and C-terminus assumed) | inhibition at 100 mg/kg (plasma DP IV; iv, i.v., read-out: DPIV inhibition at tmax, i.v.): 72%; inhibition at 100 mg/kg (plasma DP IV; po, p.o., read-out: DPIV inhibition at tmax, p.o.): 25%
19 | 14.1 | 24.5 | CC(C)(C)[C@H](N)C(=O)N1CCC[C@H]1C(=O)N[C@H](C(=O)O)C(C)(C)C [t-butyl-Gly-Pro-t-butyl-Gly] (H-[Tle]-Pro-[Tle]-OH; N-terminus and C-terminus assumed) | –
